Laboratory results from PubChem BioAssay (NCI).
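All cell lines were grown in 96-well plates and treated with compound for 48 hours. TGI marks complete inhibition of growth.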 *1 amine or outer side, *2 acyl side, *3 side chain or, on linkers, in order; H or OH if unused. Where a SMILES comes first, the peptide text is derived from it. [ ]: non-standard residue; d: D form. X33 = C=CCC(O[*:1])C(=O)[*:2]; NMeV = CN[CH](C(=O)O)C(C)C; NMeA = CN[CH](C)C(=O)O; βAla = NCCC(=O)O

Tests used:
Test in all cases: NCI tumour cell line growth inhibition, 48 h
[1] = test system: M14 melanoma
[2] = test system: DMS 273 small cell lung
[3] = test system: DLD-1 colon
[4] = test system: KM20L2 colon
[5] = test system: 786-0 renal
[6] = test system: UO-31 renal
[7] = test system: LXFL 529 NSCLC
[8] = test system: XF 498 CNS
[9] = test system: HOP-92 NSCLC
[10] = test system: KM12 colon
[11] = test system: DMS 114 small cell lung
[12] = test system: A549 NSCLC
[13] = test system: M19-MEL melanoma
[14] = test system: SNB-78 CNS
[15] = test system: RXF-631 renal
[16] = test system: HCT-15 colon
[17] = test system: MCF7 breast
[18] = test system: HOP-18 NSCLC

Compound	TGI [1] [µM]	TGI [2] [µM]	TGI [3] [µM]	TGI [4] [µM]	TGI [5] [µM]	TGI [6] [µM]	TGI [7] [µM]	TGI [8] [µM]	TGI [9] [µM]	TGI [10] [µM]	TGI [11] [µM]	TGI [12] [µM]	TGI [13] [µM]	TGI [14] [µM]	TGI [15] [µM]	TGI [16] [µM]	TGI [17] [µM]	TGI [18] [µM]
CC(C)C12C=CC(C)(CC1)n1c(=O)c3cc4ccccc4cc3c(=O)n12 (centres undefined)	> 100	> 100	> 100	> 100	> 100	96.6	> 100	> 100	> 100	> 100	> 100	> 100	> 100	> 100	> 100	> 100	–	–
CC(C)C1COC(c2cccc(C3=N[C@@H](C(C)C)CO3)n2)=N1 (some centres undefined)	> 100	> 100	> 100	> 100	> 100	> 100	> 100	> 100	> 100	> 100	> 100	> 100	> 100	> 100	> 100	> 100	–	–
CCOC(=O)/C=C(\C(=O)OCC)n1ccc(=O)n(CC(=O)OCC)c1=O	5.48	–	–	–	4.1	17.5	–	–	3.06	30.8	–	32.3	–	–	–	4.4	9.73	–
O=c1[nH]c(-c2ccccc2)nc2c1sc1nc3ccccc3n12	> 100	–	–	–	> 100	> 100	–	–	> 100	> 100	–	> 100	–	–	–	> 100	> 100	–
C=CCC1OC(=O)CCNC(=O)C(C)N(C)C(=O)C(C(C)C)N(C)C(=O)C(C(C)CC)NC(=O)C2CCCN2C1=O (centres undefined) (cyclo([X33]PI[NMeV][NMeA][βAla]); configuration not given here)	> 100	–	–	–	> 100	47.5	–	–	> 100	> 100	–	> 100	–	–	–	> 100	> 100	–
O=C1/C(=C/c2c(Cl)[nH]c3ccccc23)c2ccccc2N1c1ccccc1	13	–	–	–	25.4	37.1	–	–	31.8	19.7	–	> 100	–	–	–	15	30.9	–
Cc1ccc2c(C)c3ccc4ccccc4c3c[n+]2c1	33.9	32.7	> 100	> 100	80.3	> 100	30.4	–	52.7	14.6	31	> 100	17.3	> 100	–	> 100	–	43.2
O=C1OCC/C1=C/c1ccc(N=Nc2c(O)ccc3ccccc23)cc1	66.3	–	–	–	36.6	37.3	–	–	47.3	22.3	–	44.7	–	–	–	60.7	> 100	–
CC(C)(CO)NC(=O)Nc1c(C(F)(F)F)cc(-c2ccccc2)[nH]c1=O	> 100	–	–	–	> 100	> 100	–	–	> 100	> 100	–	> 100	–	–	–	> 100	> 100	–
Cc1ccc2c(c1)-c1c(C#N)c(N)nc(-c3ccccc3)c1CCS2(=O)=O	> 100	–	–	–	> 100	97	–	–	> 100	> 100	–	> 100	–	–	–	> 100	> 100	–
c1ccc(C2OCCO2)c(OCCOc2cc(OCCOc3ccccc3C3OCCO3)c(OCCOc3ccccc3C3OCCO3)cc2OCCOc2ccccc2C2OCCO2)c1	> 100	50.9	> 100	> 100	17.3	53.2	> 100	–	21	> 100	29.9	> 100	> 100	28	–	> 100	–	> 100
COc1cccc(C2SCC(=O)N2c2ccc(-n3c(-c4ccccc4)nc4ccccc4c3=O)cc2)c1OC (centres undefined)	> 100	–	–	–	> 100	> 100	–	–	> 100	> 100	–	> 100	–	–	–	> 100	> 100	–
NC(=O)NC(=O)c1cccc(NC(=O)CF)c1	> 100	–	–	–	> 100	80.6	–	–	> 100	> 100	–	> 100	–	–	–	> 100	> 100	–
O=C(Cc1ccccc1)NCCCN(CCCCN(CCCNC(=O)Cc1ccccc1)C(=O)OCc1ccccc1)C(=O)OCc1ccccc1	> 100	–	–	–	> 100	6.42	–	–	> 100	> 100	–	> 100	–	–	–	> 100	> 100	–
Cn1c(=O)c2c(ncn2CCCCOc2ccc3c(c2)[n+]([O-])nc(N)[n+]3[O-])n(C)c1=O	> 100	–	–	–	> 100	> 100	–	–	33.4	> 100	–	> 100	–	–	–	> 100	> 100	–
C[n+]1cccc2ccc(OC(=O)c3ccccc3)cc21	> 100	–	–	–	> 100	> 100	–	–	> 100	> 100	–	> 100	–	–	–	> 100	> 100	–
Nc1ncnc2c1cnn2Cc1cn(COCC(O)CO)nn1 (centres undefined)	> 100	–	–	–	> 100	> 100	–	–	> 100	> 100	–	> 100	–	–	–	> 100	> 100	–
COc1cccc2c1C(=O)c1ccc3cc(CCl)cc(O)c3c1C2=O	0.743	–	–	–	0.432	1.14	–	–	1.73	0.339	–	1.36	–	–	–	1.13	1.31	–
CCCCCC[C@H]1C(=O)O[C@H](C)[C@H](NC(=O)c2cccc(NC=O)c2OC)C(=O)O[C@@H](C)[C@@H]1OC(=O)CC(C)C (tested in a mixture with another compound)	> 100	–	–	–	> 100	> 100	–	–	81.2	> 100	–	21.4	–	–	–	> 100	78.3	–
COC(=O)C1=C(C)NC(C)=C(C(=O)OC)C1c1cccc(NO)c1	33.2	–	–	–	28.3	23.6	–	–	23.8	29.4	–	> 100	–	–	–	41.4	38.5	–
CN(CCCN(C)CCc1ccc(Cl)c(Cl)c1)CCCN1CCCC1	3.66	–	–	–	2.76	2.76	–	–	11.5	7.99	–	11.2	–	–	–	7.22	3.69	–
Cn1cnc(N2CCCC2)c(C#N)c1=O	> 100	–	–	–	> 100	> 100	–	–	> 100	> 100	–	> 100	–	–	–	> 100	> 100	–
CCOc1ncn(-c2ccc(NC(=S)NC34CC5CC(CC(C5)C3)C4)cc2)n1	> 100	–	–	–	> 100	> 100	–	–	60.6	> 100	–	> 100	–	–	–	> 100	> 100	–
COC(=O)C1CCC(=O)N1C(c1ccccc1)c1cc(OC)c(OC)c(OC)c1 (centres undefined)	> 100	–	–	–	> 100	> 100	–	–	> 100	> 100	–	> 100	–	–	–	> 100	> 100	–
C=C=C(Sc1ccccc1)C(C)(C)OC(C)=O	32.4	–	31.5	58.7	30.1	28.6	38.3	–	34.2	31.4	–	74.8	30.6	91.4	–	46.9	–	38.5
COC(C)(C)CCc1[nH]c2ccccc2c1CC(=O)NCCc1cncn1C	> 100	–	–	–	> 100	> 100	–	–	> 100	> 100	–	> 100	–	–	–	> 100	> 100	–
COc1ccc(C2(O)c3ccccc3C(=O)N(C)C2(O)c2ccc(OC)cc2)cc1 (centres undefined)	> 100	–	–	–	> 100	> 100	–	–	> 100	89.4	–	> 100	–	–	–	> 100	> 100	–
CCOc1ccc(NCC2CC/C(=C\c3ccc(O)cc3)C2=O)cc1 (centres undefined)	36	–	–	–	18	33.6	–	–	30	26.8	–	48.6	–	–	–	17.8	18.1	–
O=C1C(=C(I)I)c2ccccc2-c2ccccc21	9.15	–	–	–	4.33	4.7	–	–	5.66	24.6	–	34.7	–	–	–	8.51	13.8	–
COc1ccc(-c2cc(=O)c3cc4c(cc3[nH]2)OCO4)cc1	> 100	> 100	> 100	> 100	> 100	> 100	> 100	> 100	–	–	> 100	> 100	> 100	–	–	> 100	–	–
